Data on four molecules can be found in ChEMBL document CHEMBL1641415, “Discovery of a novel hybrid from finasteride and epristeride as 5α-reductase inhibitor” (Bioorg Med Chem Lett, 2011).

The term IC50 denotes the point on the concentration scale where inhibition reaches its midpoint.

A value given as a limit tells only on which side of the number the result lay.

Assay [1] addresses T1, 3-oxo-5-alpha-steroid 4-dehydrogenase 2 (Homo sapiens, UniProt P31213).
T1 sequence (P31213 whole entry): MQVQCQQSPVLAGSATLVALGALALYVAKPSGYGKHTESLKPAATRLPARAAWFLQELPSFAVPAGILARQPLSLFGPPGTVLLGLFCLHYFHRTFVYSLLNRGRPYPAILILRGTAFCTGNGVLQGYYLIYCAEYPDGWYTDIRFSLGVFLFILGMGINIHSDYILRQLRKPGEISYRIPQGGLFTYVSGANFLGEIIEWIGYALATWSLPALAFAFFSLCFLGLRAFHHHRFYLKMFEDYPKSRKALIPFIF
The assay is described as follows: Inhibition of human prostate 5alpha-reductase type 2 assessed as formation dihydrotestosterone from [4-14C] testosterone. In kind it is tissue-based, Prostate gland.

For assay [2], the target named is T2, 3-oxo-5-alpha-steroid 4-dehydrogenase 2 (Homo sapiens) (UniProt P31213).
T2 sequence (whole entry): T1 sequence (P31213 whole entry)
Nature of the assay: Inhibition of human prostate 5alpha-reductase type 2 assessed as formation dihydrotestosterone from [4-14C] testosterone relative to finasteride. The settings on record: Prostate gland.

Turning to `C[C@]12CC[C@@H]3c4ccc(OS(=O)(=O)O)cc4CC[C@H]3[C@@H]1CCC(=O)N2`, the half-maximal inhibitory concentration (IC50) in assay [1] is greater than 1 µM. In assay [2], the Ratio is less than 0.055.
For `CC(C)(C)NC(=O)[C@H]1CC[C@H]2[C@@H]3CC[C@H]4NC(=O)C=C[C@]4(C)[C@H]3CC[C@]12C` [FINASTERIDE], in assay [1], the concentration for half-maximal inhibition (IC50) is 0.035 µM.
Turning to `C[C@]12CC[C@@H]3c4ccc(O)cc4CC[C@H]3[C@@H]1CCC(=O)N2`, in assay [1], the IC50 is greater than 1 µM. Besides, in assay [2], the Ratio was less than 0.055.
On to `C[C@]12CCC(C(=O)O)=CC1=CC[C@@H]1[C@@H]2CC[C@]2(C)NC(=O)CC[C@@H]12`, for which the IC50 in assay [1] was determined as 0.071 µM. Also, the Ratio in assay [2] was 0.49.
